From patent US20150259344A1, “IMIDAZOLE DERIVATIVE” (DAINIPPON SUMITOMO PHARMA CO., LTD., priority 2012, published 2015)

The compounds below were run against T1, human α7 nAChR (Homo sapiens, UniProt P36544) (assay: Evaluation of PAM activity with human α7 nACh receptor stably expressing cells (aequorin luminescence, FDSS7000)). Conditions: 1 μM test compound (values marked *, footnote of Table 25); ACh at EC20; ratio of RLU (Max-Min) to control wells; read-out: α7PAM (%) @1 μM.
T1 construct: expressed in transfected cells
Assay type: cell-based
Method: Evaluation of PAM activity with human α7 nACh receptor stably expressing cells
(1) Human α7 nAChR stably expressing cells
Human α7 nAChR stably expressing cells were generated and cultured.
Thus, the cells were subcultured.
Seven days after subculturing, the cells were treated with TrypLE Express to collect them when they were about 80% confluent.
On the next day after seeding, Viviren (cat#E649X, Promega, Madison, Wis., USA) was added to the medium so that the final concentration could be 4 μM (15 μL/well). The plates were centrifuged and then placed in the dark for 4 hours at room temperature.
(2) Preparation of the Test Samples
Each of the test compounds was dissolved in DMSO to prepare each test sample at a concentration of 1000-fold the final concentration. To the solution was added Hanks/20 mM HEPES/0.2% BSA (cat#A3803, Sigma, St. Louis, Mo., USA), and the concentration was adjusted to 6-fold the final concentration.
(3) Evaluation of PAM Activity
FDSS7000 (Hamamatsu Photonics) was used to detect the luminescence signal evoked by α7 nAChR stimulation. The cells and a luminescent substrate were put on a plate, and the test sample was added thereto. […] The ratio of the RLU (Max-Min) of the test-compound-containing wells to that of the control wells was defined as PAM activity.

T1 sequence (P36544 23-502): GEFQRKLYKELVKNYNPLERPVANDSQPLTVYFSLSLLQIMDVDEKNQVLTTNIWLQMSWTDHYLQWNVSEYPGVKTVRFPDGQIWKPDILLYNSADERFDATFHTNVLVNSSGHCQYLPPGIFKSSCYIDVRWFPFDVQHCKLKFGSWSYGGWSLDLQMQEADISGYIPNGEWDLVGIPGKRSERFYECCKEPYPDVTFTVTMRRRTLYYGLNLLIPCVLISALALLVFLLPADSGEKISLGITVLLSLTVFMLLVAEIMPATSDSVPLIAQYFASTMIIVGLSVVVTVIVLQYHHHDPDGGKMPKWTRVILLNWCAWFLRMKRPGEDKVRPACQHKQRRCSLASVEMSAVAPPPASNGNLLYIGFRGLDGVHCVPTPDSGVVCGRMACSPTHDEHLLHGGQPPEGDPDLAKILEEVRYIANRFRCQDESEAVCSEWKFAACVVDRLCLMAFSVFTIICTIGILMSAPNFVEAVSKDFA

Compound	activity at 1 µM [%]
O=C(N[C@H]1CC[C@@H](n2cnc(-c3cccc(F)c3)c2Cl)CC1)C1CCC1 [Example 176]	258
O=C(NC1CCCCC1)N1[C@@H]2CC[C@H]1C[C@@H](n1cnc(-c3cccc(F)c3F)c1)C2 [Example 387]	315
CC(C)(C)C(=O)N[C@H]1CC[C@@H](n2cnc(-c3ccc(C(F)(F)F)cc3)c2)CC1 [Example 161]	233
CC(C)(C)C(=O)N[C@H]1CC[C@@H](n2cnc(-c3cccc(C(F)(F)F)c3)c2C#N)CC1 [Example 200]	180

More lines, now with the values ahead:

activity at 1 µM [%]	Compound
670	CC(C)(F)C(=O)N[C@H]1CC[C@@H](n2cnc(-c3ccc(F)c(OC(F)(F)F)c3)c2C#N)CC1 [Example 350]
467	CC(C)(F)C(=O)N[C@H]1CC[C@@H](n2cnc(-c3ccccc3OC(F)(F)F)c2Cl)CC1 [Example 331]
119	O=C(NC1CCOCC1)[C@H]1CC[C@@H](n2cnc(-c3ccccc3F)c2)CC1 [Example 356]
589	CC(C)(F)C(=O)N[C@H]1CC[C@@H](n2cnc(-c3ccc(OC(F)(F)F)c(F)c3)c2)CC1 [Example 296]
181	COc1cc(-c2cn([C@H]3CC[C@@H](NC(=O)C(C)(C)F)CC3)cn2)ccc1Cl [Example 309]
118	O=C(NC1CCOCC1)[C@H]1CC[C@@H](n2cnc(-c3cccc(F)c3)c2)CC1 [Example 355]
273	CC(C)(F)C(=O)N[C@H]1CC[C@@H](n2cnc(-c3cc(F)c(F)cc3F)c2)CC1 [Example 313]

Same assay, conditions: 10 μM test compound; ACh at EC20; ratio of RLU (Max-Min) to control wells

α7PAM (%) @10 μM [%]	Compound
476	CC(C)(F)C(=O)N[C@H]1CC[C@@H](n2cnc(-c3ccc(F)cc3)c2)CC1 [Example 8, 2-Fluoro-N-{cis-4-[4-(4-fluorophenyl)-1H-imidazol-1-yl]cyclohexyl}-2-methylpropanamide]

Same assay, conditions: 10 μM test compound; ACh at EC20; ratio of RLU (Max-Min) to control wells; read-out: α7PAM (%) @10 μM

Compound	activity at 10 µM [%]
O=C(Nc1ccccc1F)N1CCC(n2cnc(-c3ccc(Cl)cc3)c2)CC1 [Example 21]	291
O=C(NC1CCCCC1)N1CCC(n2cnc(-c3ccc(C(F)(F)F)cn3)c2)CC1 [Example 131]	738
O=C(NC1CCC(F)(F)CC1)N1CCC(n2cnc(-c3cccs3)c2)CC1 [Example 125]	466
N#Cc1c(-c2ccc(F)cc2F)ncn1[C@@H]1C[C@H]2CC[C@@H](C1)N2C(=O)NC1CCC(F)(F)CC1 [Example 422]	131
O=C(C1CCC(F)(F)CC1)N1[C@@H]2CC[C@H]1C[C@@H](n1cnc(-c3cc(F)ccc3F)c1Cl)C2 [Example 437]	533
O=C(NC1CC2CCC1C2)N1CCC(n2cnc(-c3ccccc3)c2)CC1 (stereo not drawn) [Example 38]	311
N#Cc1c(-c2ccc(F)cc2)ncn1[C@@H]1C[C@H]2CC[C@@H](C1)N2C(=O)C1CCC(F)(F)CC1 [Example 461]	162
COC1CCC(NC(=O)N2CCC(n3cnc(-c4ccc(C)s4)c3)CC2)CC1 (stereo not drawn) [Example 128]	188
O=C(C1CCOCC1)N1[C@@H]2CC[C@H]1C[C@@H](n1cnc(-c3cccc(F)c3F)c1Cl)C2 [Example 440]	508
O=C(NC1CCC(F)(F)CC1)N1CCC(n2cnc(-c3ccnc(Cl)c3)c2)CC1 [Example 120]	208
O=C(NC1CCC(F)(F)CC1)N1[C@@H]2CC[C@H]1C[C@H](n1cnc(-c3ccc(F)cc3F)c1)C2 [Example 407]	904
Fc1ccc(-c2ncn([C@H]3CC[C@@H](Nc4cc(C(F)(F)F)ncn4)CC3)c2Cl)cc1 [Example 237]	405
COC1CCC(C(=O)N2CCC(n3cnc(-c4ccccc4)c3)CC2)CC1 (stereo not drawn) [Example 142]	163
O=C(C1CCC(F)(F)CC1)N1CCC(n2cnc(-c3cccc(F)c3)c2)CC1 [Example 144]	346
O=C(C1CCC(F)(F)CC1)N1CCC(n2cnc(-c3ccc(OC(F)F)cc3)c2)CC1 [Example 146]	572
O=C(NC1CCC(F)(F)CC1)N1CCC(n2cnc(-c3ccccc3)c2C2CC2)CC1 [Example 113]	882

Compound	activity at 10 µM [%]
O=C(NC1CCCCC1)N1CCC(n2cnc(-c3c(F)cccc3F)c2)CC1 [Example 10]	597
O=C(C1CCOCC1)N1[C@@H]2CC[C@H]1C[C@H](n1cnc(-c3cccc(F)c3F)c1Cl)C2 [Example 458]	434
O=C(C1CCC(F)(F)CC1)N1[C@@H]2CC[C@H]1C[C@H](n1cnc(-c3ccc(F)cc3F)c1)C2 [Example 447]	268
COc1cc(-c2ncn([C@H]3CC[C@@H](NC(=O)C(C)(C)F)CC3)c2Cl)ccc1F [Example 186]	254
O=C(C1CCC(F)(F)CC1)N1[C@@H]2CC[C@H]1C[C@H](n1cnc(-c3ccc(F)cc3)c1)C2 [Example 446]	143
O=C(c1ccc(F)cn1)N1CCC(n2cnc(-c3ccc(F)c(F)c3)c2)CC1 [Example 140]	127
Cc1ccc(-c2cn(C3CCN(C(=O)NC4CCCC4)CC3)cn2)s1 [Example 122]	459
COc1ccc(-c2ncn(C3CCN(C(=O)C4CCC(F)(F)CC4)CC3)c2Cl)cc1 [Example 148]	700
CC(C)(C)NC(=O)N1CCC(n2cnc(-c3cccc(F)c3)c2)CC1 [Example 64]	149
O=C(NC1CCOCC1)N1CCC(n2cnc(-c3cccc(C(F)(F)F)c3)c2Cl)CC1 [Example 94, 4-{5-chloro-4-[3-(trifluoromethyl)phenyl]-1H-imidazol-1-yl}-N-(tetrahydro-2H-pyran-4-yl)piperidine-1-carboxamide]	981
O=C(C1CCC(F)(F)CC1)N1CCC(n2cnc(-c3ccc(C(F)(F)F)cc3)c2)CC1 [Example 138]	597
Cc1ccccc1-c1cn(C2CCN(C(=O)Nc3ccccc3F)CC2)cn1 [Example 13]	161
O=C(NC1CC2CCC1C2)N1CCC(n2cnc(-c3ccc(OC(F)F)cc3)c2)CC1 (stereo not drawn) [Example 57]	302
O=C(N[C@H]1CC[C@@H](n2cnc(-c3ccccc3)c2Cl)CC1)C1CCC1 [Example 171]	551
O=C(C1CCC(F)(F)CC1)N1[C@@H]2CC[C@H]1C[C@H](n1cnc(-c3cc(F)ccc3F)c1Cl)C2 [Example 459]	730

Further lines, results first:

activity at 10 µM [%]	Compound
540	Cc1c(-c2ccc(F)cc2)ncn1[C@H]1CC[C@@H](NC(=O)C(C)(C)F)CC1 [Example 351]
377	CC(C)(F)C(=O)N[C@H]1CC[C@@H](n2cnc(-c3ccc(F)cc3F)c2C#N)CC1 [Example 340]
464	CC(C)(F)C(=O)N[C@H]1CC[C@@H](n2cnc(-c3ccc(F)cc3)c2C#N)CC1 [Example 332, N-{cis-4-[5-cyano-4-(4-fluorophenyl)-1H-imidazol-1-yl]cyclohexyl}-2-fluoro-2-methylpropanamide]
194	CC(C)(C(=O)N[C@H]1CC[C@@H](n2cnc(-c3ccc(F)cc3)c2)CC1)C(F)(F)F [Example 290]
557	N#Cc1c(-c2ccc(F)cc2)ncn1[C@H]1CC[C@@H](NC(=O)C2CCOCC2)CC1 [Example 336]
154	CC(C)(F)C(=O)N[C@H]1CC[C@@H](n2cnc(-c3ccc(F)c(OC(F)(F)F)c3)c2Cl)CC1 [Example 330]
233	CC(C)(F)C(=O)N[C@H]1CC[C@@H](n2cnc(-c3ccc(Cl)cc3)c2C#N)CC1 [Example 333]
598	O=C(NC1CCOCC1)[C@H]1CC[C@@H](n2cnc(-c3ccccc3F)c2Cl)CC1 [Example 360]
492	CC(C)(F)C(=O)N[C@H]1CC[C@@H](n2cnc(-c3ccccc3F)c2C#N)CC1 [Example 337]
312	N#Cc1c(-c2ccc(F)cc2)ncn1[C@H]1CC[C@@H](NC(=O)C2CCC(F)(F)CC2)CC1 [Example 335]
297	O=C(C1CCC(F)(F)CC1)N1CCCC(n2cnc(-c3ccc(F)cc3)c2)CC1 (stereo not drawn) [Example 242]
146	CC(C)(F)C(=O)N1CCC(n2cnc(-c3ccc(F)cc3)c2)CC1 [Example 260]
166	CC(C)(F)C(=O)N[C@H]1CC[C@@H](n2cnc(-c3cccc(OC(F)(F)F)c3)c2)CC1 [Example 298]
164	Cc1c(-c2ccc(F)cc2)ncn1[C@H]1CC[C@@H](NC(=O)C2CCOCC2)CC1 [Example 352]
452	N#Cc1c(-c2cccc(F)c2)ncn1C1CCN(C(=O)C2CC(F)(F)C2)CC1 [Example 269]
988	N#Cc1c(-c2ccc(C(F)(F)F)cc2)ncn1[C@H]1CC[C@@H](C(=O)NC2CCOCC2)CC1 [Example 377]
648	O=C(NC1CCOCC1)N1CCC(n2cnc(-c3ccccc3F)c2Cl)CC1 [Example 252]
328	COc1cc(F)c(-c2cn([C@H]3CC[C@@H](NC(=O)C(C)(C)F)CC3)cn2)cc1F [Example 319]

Same assay, conditions: comparison across Tables 18 to 25

PAM activity for α7 nAChR (in words)	Compound
stronger PAM activity than others	O=C(NC1CCOCC1)N1CCC(n2cnc(-c3ccc(C(F)(F)F)cc3)c2Cl)CC1 [Example 93]
stronger PAM activity than others	N#Cc1c(-c2ccc(OC(F)(F)F)cc2)ncn1[C@H]1CC[C@@H](C(=O)NC2CCOCC2)CC1 [Example 380]
